This is an account of results in publication PMC10817945, “Design of a novel analogue peptide with potent antibiofilm activities against Staphylococcus aureus based upon a sapecin B-derived peptide” (Scientific Reports, 2024).

SMILES strings stand for the structures. Values after ≈ are worked out from the molar mass of the structure shown. Read-outs that look alike come from different tables or passages of the source. Non-standard residues stand in square brackets, D forms with d. Residues, ends and D or L forms follow the SMILES beside them.

Data set [1] has as its system clinical Salmonella isolates. The arrangement: method as in PMID 34361810. Conditions: cited from earlier work.
For data set [2], the system named is S. aureus. The arrangement: method as in ref 17 (Manabe et al.). Conditions: ref 17 (Manabe et al.); cited from earlier work.
A short description of data set [3]: in vitro. The following applies: human.
Experimental: To quantitatively investigate the cytotoxicity of mKLK and KLK peptides, the 2,3-bis-(2-methoxy-4-nitro-5-sulfophenyl)-2H-tetrazolium-5-carboxanilide (XTT) (cell proliferation kit II, Roche, Germany) assay was performed on human embryonic kidney (HEK)-293 cell line, as described previously[47], The HEK-293 cells were grown in DMEM supplemented with 4 µM glutamine, 10% fetal bovine serum (FBS), and 100 units/ml penicillin/streptomycin at 37 °C in a 5% CO2 and 95% air atmosphere. Following incubation for 24 h, the culture medium was discarded and fresh medium containing different concentrations of KLK and mKLK peptides (1.56, 3.12, 6.25, 12.5, and 25 µM) was added and incubated at 37 °C for 20 min. Then, the culture medium was discarded and 100 µl of XTT reagent mixture was added and incubated for 4 h. Finally, the absorbance was measured at 570 nm using an ELISA plate reader (Anthos 2020, England). The percentage of cell inhibition was calculated using the following formula: % Cell inhibition = Test Abs/Control Abs × 100.
The nature of data set [4]: in vitro. Conditions: human. As to the method:
(§1) The assay was performed using fresh human blood samples containing citrate phosphate dextrose anticoagulant collected from a blood bank (Iranian Blood Transfusion Organization). Human red blood cells (RBC) were centrifuged at 1700×g for 5 min; then the supernatant was removed and the erythrocyte pellet was diluted 1:100 in PBS to obtain a 1% erythrocyte suspension. […] Then, 50 μl of the 1% erythrocyte suspension and 50 μl of the peptides were mixed and added to wells of a 96-well polypropylene conical bottom microplate and incubated at 37 °C for 1 h. Following centrifugation of the samples at 1700×g for 5 min, 50 μl of the supernatant was transferred to wells of a 96-well flat-bottom plate for the absorbance measurement at 405 nm in a microplate reader. Identical volumes of Triton X-100 (1%) and PBS were used as positive and negative controls, respectively. The selectivity indexes (SI) were also determined as a toxicity indicator.
The source holds these as a separate data set.

Another data set deals with Human red blood cells. Kind of data set: in vitro. As to the method:
as §1

For data set [5] the following is noted: 50% human serum, 37 °C, 2 h, reverse-phase HPLC. The method, then:
To assess the serum stability of mKLK peptide to proteolytic degradation, the D-form mKLK peptide (0.5 mg) was dissolved in 4 ml of 50% (v/v) of serum from male healthy donors in PBS and incubated at 37 °C for 0, 60, and 120 min. After each incubation time, the samples were analyzed by reverse-phase HPLC on a Jupiter proteo C18 column (250 × 4.6 mm) and monitored with a fluorescence detector (wavelength: 560 nm). Analysis of the samples was performed over a linear gradient of 10–60% acetonitrile containing 0.08% trifluoroacetic acid for 50 min at a flow rate of 1 ml/min[48].

The next data set deals with S. aureus ATCC 25923. It counts as cell-based, Staphylococcus aureus. The following applies: ATCC 25923, 2 h. The method, then:
To test the retinue of antimicrobial activity of mKLK in human serum, MIC of the serum-treated peptide was determined against S. aureus ATCC 25923 using microdilution broth assay. […] The MIC was determined as the lowest concentration of peptide at which no visible growth is seen[49].

The subject of data set [6] is S. aureus. Kind of data set: Effect of 1/2× MIC on bacterial growth. It counts as cell-based, Staphylococcus aureus. From the text: To ensure that the antibiofilm property of mKLK is independent of its ability to inhibit bacterial growth, the effect of 1/2× MIC on bacterial growth was examined.
Data set [7] concerns S. aureus ATCC25923 and MRSA-1 strains. Kind of data set: Catheter-associated biofilm infection mouse model. The format is in vivo, Staphylococcus aureus. The following applies: Balb/c mice, 5 days; for reduction of biofilm formation on catheters (crystal-violet assay): ATCC 25923; for reduction of biofilm on catheters (crystal-violet assay): MRSA. The method, then:
All animal experiments were performed in accordance with the protocols approved by the Animal Ethics Committee of Ahvaz Jundishapur University of Medical Sciences (Application No. IR.AJUMS.ABHC.REC.1400.014). Female Balb/c mice (Laboratory Animal Reproduction and Maintenance Center Ahvaz Jundishapur University Ahvaz, Iran) were housed one mouse per cage, under sanitary conditions at 22–25 °C and at 12 h light/dark cycles, with access to sanitized pellet food and water. Prior to each experiment, mice were acclimated to room conditions for 1 week. To increase the experimental accuracy, the cages were disinfected with a povidone-iodine solution of 10%, and the bedding materials were autoclaved, and replaced every day.
In this study, eight groups (five mice per group) of 12-week-old female Balb/c mice were obtained from the Pasture Institute of Iran (Tehran, Iran). Three groups were used to investigate the effect of three concentrations of mKLK against ATCC25923 strain, three groups for three concentrations of mKLK against MRSA, and two groups for control). Mice were anesthetized by injection of ketamine 10% and xylazine 2% (in a ratio of 3 to 1). To create a subcutaneous pocket to place three 1-cm-long polyurethane catheters, a small incision was made. Three catheters were subcutaneously implanted on the lower back of mice. Following implantation of the catheters, injection of bacterial suspension and then mKLK peptide was performed into the subcutaneous pocket. […] In addition, PBS was injected alone into animals as a control group without contamination to evaluate the sterility of the surgical procedure. The incision was closed with Vetbond. Tissue adhesive (Kimiatajhiz teb, Iran) and cleansed with 10% PI solution. After 5 days, all mice were euthanized with CO2, and the catheters were removed. Subsequently, catheter-associated biofilms were evaluated using the CFU counting method, crystal violet assay, and SEM.
The biofilm mass attached to the catheter surface was measured using a colorimetric assay (crystal violet). After removing the catheters from the mouse skin and double washing with PBS, each catheter was placed in wells of a 24-well microtiter plate, and absolute methanol was added to fix the biofilm to the catheter surface. Then, the methanol was discarded and the catheters were dried at room temperature. After staining with crystal violet 0.1% for 5 min at room temperature, the dye was discarded and the catheters were washed with PBS. Then, 33% acetic acid was added to each well to release the absorbed dye. […] To enumerate biofilm cells, catheters were removed, transferred to sterile tubes, vortexed, and sonicated. Bacterial numbers were determined by serial diluting and plating on TSA[56].

With `CC(C)C[C@@H](NC(=O)[C@H](N)CCCCN)C(=O)N[C@H](CCCCN)C(=O)N[C@H](CC(C)C)C(=O)N[C@H](CC(C)C)C(=O)N[C@H](CC(C)C)C(=O)N[C@H](CC(C)C)C(=O)N[C@H](CC(C)C)C(=O)N[C@H](CCCCN)C(=O)N[C@H](CC(C)C)C(=O)N[C@H](CCCCN)C(N)=O` [KLK] (H-[dK][dL][dK][dL][dL][dL][dL][dL][dK][dL][dK]-NH2; N-terminus assumed), in data set [1], the MIC (in general, the lowest concentration found to suppress growth) is > 256 µM. Moreover, the MIC in the data set on S. aureus [2] was 4 µg/mL (≈ 3.03 µM). In the data set “in vitro [3]”, the IC50 (in general, the midpoint of a concentration-inhibition curve) at 20 min amounted to 28.8 µM. In the data set “in vitro [4]”, the hemolysis at 1 h, 1.56 µM is 10.4%; the hemolysis at 1 h, 3.12 µM was 18.3%; the hemolysis at 1 h, 6.25 µM came out at 27.1%; the hemolysis at 1 h, 12.5 µM was determined as 34.2%. In “in vitro [4]”, this molecule displayed a hemolysis at 1 h, 25 µM of 42.8%; a hemolysis at 1 h, 50 µM of 71.5%; a hemolysis at 1 h, 75 µM of 80.1%; a hemolysis at 1 h, 100 µM of 88.3%. In “in vitro [4]”, this molecule gave a hemolysis at 1 h, 150 µM of 92.2% and a hemolysis at 1 h, 200 µM of 95.4%. For the same molecule, the HC50 (in general, the concentration that lyses half of the red blood cells) in the data set on Human red blood cells turned out to be 38.49 µg/mL. In the data set with Human red blood cells (red cells of human, 1 h), this molecule returned an HC50 of 29.1 µM.

Regarding `CC(C)C[C@@H](NC(=O)[C@H](N)Cc1c[nH]c2ccccc12)C(=O)N[C@H](Cc1c[nH]c2ccccc12)C(=O)N[C@H](C)C(=O)N[C@H](CC(C)C)C(=O)N[C@H](CC(C)C)C(=O)N[C@H](CCCCN)C(=O)N[C@H](CC(C)C)C(=O)N[C@H](CC(C)C)C(=O)N[C@H](CCCCN)C(=O)N[C@H](CC(C)C)C(=O)N[C@H](CCCCN)C(N)=O` [mKLK] (H-[dW][dL][dW][dA][dL][dL][dK][dL][dL][dK][dL][dK]-NH2; N-terminus assumed), in data set [5], the “percentage of the peptide remaining” value was determined as 79%. In the data set on S. aureus ATCC 25923, the “MIC after serum treatment” value is 4 µg/mL (≈ 2.62 µM). In the data set “in vitro [4]”, the hemolysis at 1 h, 1.56 µM is 0%; the hemolysis at 1 h, 3.12 µM is 0.3%; the hemolysis at 1 h, 6.25 µM stood at 1.8%; the hemolysis at 1 h, 12.5 µM worked out at 9.3%. In the data set “in vitro [4]”, this molecule displayed a hemolysis at 1 h, 25 µM of 15.4%; a hemolysis at 1 h, 50 µM of 36.2%; a hemolysis at 1 h, 75 µM of 48.2%; a hemolysis at 1 h, 100 µM of 58.2%. In “in vitro [4]”, this molecule had a hemolysis at 1 h, 150 µM of 62.4% and a hemolysis at 1 h, 200 µM of 67.1%. Further, in the data set on Human red blood cells, the HC50 is 118.6 µg/mL. In addition, the HC50 with Human red blood cells (red cells of human, 1 h) came out at 77.8 µM. In the data set with S. aureus [6], the “effect on bacterial growth” value is given as “did not affect the bacterial growth”. Also, in data set [7] (1/2× MIC), the “reduction of biofilm formation on catheters (crystal-violet assay)” value (“reduction of biofilm formation” for short) is given as 62% and the “reduction of biofilm on catheters (crystal-violet assay)” value (shortened to “reduction of biofilm on catheters”) came out at 58%. Besides, the “reduction of biofilm formation” value in data set [7] (1/4×MIC) turned out to be 36%. The “reduction of biofilm formation” value in data set [7] (1 × MIC) is recorded as 72%. In data set [7] (1/4× MIC), the “reduction of biofilm on catheters” value is reported as 27%. Also, in data set [7] (1× MIC), the “reduction of biofilm on catheters” value is 73%.
